# Tests used:
# MCF7 [1] = assay: Cytotoxicity against human MCF7 cells assessed as reduction in cell viability by MTT assay; type: functional, cell-based
# SK-MEL3 = assay: Cytotoxicity against human SK-MEL-3 cells assessed as reduction in cell viability by MTT assay; type: functional, cell-based
# A-431 = assay: Cytotoxicity against human A431 cells assessed as reduction in cell viability by MTT assay; type: functional, cell-based
# EJ = assay: Cytotoxicity against human EJ cells assessed as reduction in cell viability by MTT assay; type: functional, cell-based
# SW480 = assay: Cytotoxicity against human SW480 cells assessed as reduction in cell viability by MTT assay; type: functional, cell-based
# MCF7 [2] = assay: Cytotoxicity against human MCF7 cells assessed as reduction in cell viability after 72 hrs by MTT assay; type: functional, cell-based; conditions: MCF7, 72 h
# MCF7 [3] = assay: Potency index, ratio of IC50 for etoposide to IC50 for test compound for cytotoxicity against human MCF7 cells assessed as reduction in cell viability after 72 hrs by MTT assay; type: functional
# HeLa [4] = assay: Antiproliferative activity against human HeLa cells after 72 hrs by MTT assay; type: functional, cell-based
# A549 [5] = assay: Antiproliferative activity against human A549 cells after 72 hrs by MTT assay; type: functional, cell-based; conditions: A549, 72 h
# HL-60 [6] = assay: Antiproliferative activity against human HL60 cells after 72 hrs by MTT assay; type: functional, cell-based; conditions: HL-60, 72 h
# PANC-1 [7] = assay: Potency index, ratio of IC50 for etoposide to IC50 for test compound for anticancer activity against human PANC1 cells after 48 hrs by SRB assay; type: functional
# A549 [8] = assay: Potency index, ratio of IC50 for etoposide to IC50 for test compound for anticancer activity against human A549 cells after 48 hrs by SRB assay; type: functional
# HCT-116 [9] = assay: Potency index, ratio of IC50 for etoposide to IC50 for test compound for anticancer activity against human HCT116 cells after 48 hrs by SRB assay; type: functional
# MCF7-DOX [10] = assay: Anticancer activity against human MCF7/Dox cells after 48 hrs by SRB assay; type: functional, cell-based
# HL-60 [11] = assay: Potency index, ratio of IC50 for etoposide to IC50 for test compound for anticancer activity against human HL60 cells after 48 hrs by SRB assay; type: functional
# MCF7 [12] = assay: Anticancer activity against human MCF7 cells after 48 hrs by SRB assay; type: functional, cell-based; conditions: MCF7, 48 h
# SK-OV-3 [13] = assay: Anticancer activity against human SKOV3 cells after 48 hrs by SRB assay; type: functional, cell-based; conditions: SK-OV-3, 48 h
# PANC-1 [14] = assay: Anticancer activity against human PANC1 cells after 48 hrs by SRB assay; type: functional, cell-based; conditions: PANC-1, 48 h
# HeLa [15] = assay: Anticancer activity against human HeLa cells after 48 hrs by SRB assay; type: functional, cell-based
# HL-60 [16] = assay: Anticancer activity against human HL60 cells after 48 hrs by SRB assay; type: functional, cell-based; conditions: HL-60, 48 h
# HepG2 [17] = assay: Anticancer activity against human HepG2 cells after 48 hrs by SRB assay; type: functional, cell-based; conditions: HepG2, 48 h
# DU-145 [18] = assay: Anticancer activity against human DU145 cells after 48 hrs by SRB assay; type: functional, cell-based; conditions: DU-145, 48 h
# A549 [19] = assay: Anticancer activity against human A549 cells after 48 hrs by SRB assay; type: functional, cell-based; conditions: A549, 48 h
# HCT-116 [20] = assay: Anticancer activity against human HCT116 cells after 48 hrs by SRB assay; type: functional, cell-based; conditions: HCT-116, 48 h
# HeLa [21] = assay: Potency index, ratio of IC50 for etoposide to IC50 for test compound for anticancer activity against human HeLa cells after 48 hrs by SRB assay; type: functional
# DU-145 [22] = assay: Potency index, ratio of IC50 for etoposide to IC50 for test compound for anticancer activity against human DU145 cells after 48 hrs by SRB assay; type: functional
# SK-OV-3 [23] = assay: Potency index, ratio of IC50 for etoposide to IC50 for test compound for anticancer activity against human SKOV3 cells after 48 hrs by SRB assay; type: functional
# MCF7 [24] = assay: Potency index, ratio of IC50 for etoposide to IC50 for test compound for anticancer activity against human MCF7 cells after 48 hrs by SRB assay; type: functional
# MCF7-DOX [25] = assay: Potency index, ratio of IC50 for etoposide to IC50 for test compound for anticancer activity against human MCF7/Dox cells after 48 hrs by SRB assay; type: functional
# [26] = Cytotoxicity against human MGC832 cells assessed as reduction in cell viability after 48 hrs by MTT assay; type: functional, cell-based
# HeLa [27] = assay: Cytotoxicity against human HeLa cells assessed as reduction in cell viability after 48 hrs by MTT assay; type: functional, cell-based
# PC-3 = assay: Cytotoxicity against human PC3 cells assessed as reduction in cell viability after 48 hrs by SRB assay; type: functional, cell-based; conditions: PC-3, 48 h
# DU-145 [28] = assay: Cytotoxicity against human DU145 cells assessed as reduction in cell viability after 48 hrs by SRB assay; type: functional, cell-based; conditions: DU-145, 48 h
# SMMC-7721 [29] = assay: Cytotoxicity against human SMMC7721 cells assessed as reduction in cell viability by MTT assay; type: functional, cell-based
# KB = assay: Cytotoxicity against human KB cells assessed as reduction in cell viability; type: functional; conditions: read-out: TD50 (the source's name)
# L1210 [30] = assay: Cytotoxicity against mouse L1210 cells assessed as reduction in cell viability; type: functional, cell-based
# [31] = Cytotoxicity against human SW403 cells assessed as reduction in cell viability; type: functional; conditions: SW-403, read-out: TD50 (the source's name)
# MCF7 [32] = assay: Cytotoxicity against human MCF7 cells assessed as reduction in cell viability; type: functional, cell-based; conditions: read-out: TD50 (the source's name)
# OVCAR-3 = assay: Cytotoxicity against human OVCAR3 cells assessed as reduction in cell viability; type: functional; conditions: read-out: TD50 (the source's name)
# HL-60 [33] = assay: Cytotoxicity against human HL60 cells assessed as reduction in cell viability; type: functional, cell-based
# HCT-116 [34] = assay: Cytotoxicity against human HCT116 cells assessed as reduction in cell viability by SRB assay; type: functional, cell-based
# L1210 [35] = assay: Cytotoxicity against mouse L1210 cells assessed as reduction in cell viability by MTT assay; type: functional, cell-based
# HL-60 [36] = assay: Cytotoxicity against human HL60 cells assessed as reduction in cell viability by MTT assay; type: functional, cell-based
# Hep 3B2 [37] = assay: Cytotoxicity against human Hep3B cells assessed as reduction in cell viability by MTT assay; type: functional, cell-based
# CAPAN-1 [38] = assay: Cytotoxicity against human Capan1 cells assessed as reduction in cell viability by MTT assay; type: functional, cell-based
# CAPAN-1 [39] = assay: Cytotoxicity against human Capan1 cells assessed as reduction in cell viability; type: functional, cell-based
# Hep 3B2 [40] = assay: Cytotoxicity against human Hep3B cells assessed as reduction in cell viability; type: functional, cell-based
# HCT-8 = assay: Antiproliferative activity against human HCT8 cells after 48 hrs by MTT assay; type: functional, cell-based; conditions: HCT-8, 48 h
# SMMC-7721 [41] = assay: Cytotoxicity against human SMMC7721 cells assessed as reduction in cell viability; type: functional, cell-based
# SMMC-7721 [42] = assay: Antiproliferative activity against human SMMC7721 cells after 24 to 72 hrs by MTT assay; type: functional, cell-based
# L1210 [43] = assay: Antiproliferative activity against mouse L1210 cells after 24 to 72 hrs by MTT assay; type: functional, cell-based
# HL-60 [44] = assay: Antiproliferative activity against human HL60 cells after 24 to 72 hrs by MTT assay; type: functional, cell-based
# SMMC-7721 [45] = assay: Antiproliferative activity against human SMMC7721 cells by MTT assay; type: functional, cell-based
# L1210 [46] = assay: Antiproliferative activity against mouse L1210 cells by MTT assay; type: functional, cell-based
# [47] = Toxicity in mouse xenografted with human CX-1 cells; conditions: in vivo
# [48] = Toxicity in mouse xenografted with human MB-9812 cells
# HepG2 [49] = assay: Cytotoxicity against human HepG2 cells assessed as reduction in cell viability after 48 hrs by MTT assay; type: functional, cell-based; conditions: HepG2, 48 h
smiles,measurement,setting,value
CCn1cc(C(=O)O)c(=O)c2cc(F)c(N3CCN(C/C(=N/OC)c4ccc(Cl)s4)CC3)cc21,IC50,MCF7 [1],≤ 20000 nM
same,IC50,SK-MEL3,≤ 20000 nM
same,IC50,A-431,≤ 20000 nM
same,IC50,EJ,≤ 20000 nM
same,IC50,SW480,≤ 20000 nM
same,IC50,MCF7 [2],2500 to 5000 nM
same,Ratio IC50,MCF7 [3],4.64
N=C(NS(=O)(=O)c1cccc(C(F)(F)F)c1)N1CCN(c2cc3c(cc2F)c(=O)c(C(=O)O)cn3-c2ccc(F)cc2F)CC1,IC50,HeLa [4],10 nM
same,IC50,A549 [5],28 nM
same,IC50,HL-60 [6],18 nM
CC1(CN)CN(c2ccc3c(=O)c(C(=O)O)cn(-c4nccs4)c3n2)C/C1=N/OCc1ccccc1 (stereo not drawn),Ratio IC50,PANC-1 [7],>=1.3 - 100
same,Ratio IC50,A549 [8],>=1.3 - 100
same,Ratio IC50,HCT-116 [9],>=1.3 - 100
same,IC50,MCF7-DOX [10],500 to 6250 nM
same,Ratio IC50,HL-60 [11],>=1.3 - 100
same,IC50,MCF7 [12],500 to 6250 nM
same,IC50,SK-OV-3 [13],500 to 6250 nM
same,IC50,PANC-1 [14],500 to 6250 nM
same,IC50,HeLa [15],500 to 6250 nM
same,IC50,HL-60 [16],500 to 6250 nM
same,IC50,HepG2 [17],500 to 6250 nM
same,IC50,DU-145 [18],500 to 6250 nM
same,IC50,A549 [19],500 to 6250 nM
same,IC50,HCT-116 [20],500 to 6250 nM
same,Ratio IC50,HeLa [21],>=1.3 - 100
same,Ratio IC50,DU-145 [22],>=1.3 - 100
same,Ratio IC50,SK-OV-3 [23],>=1.3 - 100
same,Ratio IC50,MCF7 [24],>=1.3 - 100
same,Ratio IC50,MCF7-DOX [25],>=1.3 - 100
COC(=O)c1c(-c2ccc[nH]2)[nH]c2ccccc2c1=O,IC50,[26],13 nM
same,IC50,HeLa [27],110 nM
COc1cccc2c1C(=O)c1c(O)c3c(c(O)c1C2=O)C[C@@](O)(C(=O)CO)C[C@@H]3O[C@H]1C[C@H](N)[C@H](O)[C@H](C)O1 [DOXORUBICIN],IC50,PC-3,0.4 µg/mL
same,IC50,DU-145 [28],0.4 µg/mL
same,IC50,SMMC-7721 [29],1200 to 2600 nM
same,CC50,KB,0.014 to 0.098 µg/mL
same,IC50,L1210 [30],1600 to 3000 nM
same,CC50,[31],0.014 to 0.098 µg/mL
same,CC50,MCF7 [32],0.014 to 0.098 µg/mL
same,CC50,OVCAR-3,0.014 to 0.098 µg/mL
same,IC50,HL-60 [33],3500 nM
same,IC50,HCT-116 [34],8.8 nM
same,IC50,L1210 [35],1200 to 2600 nM
same,IC50,HL-60 [36],1200 to 2600 nM
same,IC50,Hep 3B2 [37],1800 to 3500 nM
same,IC50,CAPAN-1 [38],1800 to 3500 nM
same,IC50,CAPAN-1 [39],1700 nM
same,IC50,Hep 3B2 [40],2600 nM
same,IC50,HCT-8,7200 nM
same,IC50,SMMC-7721 [41],1600 to 3000 nM
same,IC50,SMMC-7721 [42],2500 nM
same,IC50,L1210 [43],1700 nM
same,IC50,HL-60 [44],3600 nM
same,IC50,SMMC-7721 [45],2300 nM
same,IC50,L1210 [46],4200 nM
same,LD50,[47],11 mg/kg
same,LD50,[48],11 mg/kg
O=C(O)c1c(-c2ccc[nH]2)[nH]c2ccccc2c1=O [PENICINOLINE],IC50,HepG2 [49],7 nM
same,IC50,[26],91 nM
